These are literature values, as cited in article PMC8198792, “Prediction of Anticancer Peptides with High Efficacy and Low Toxicity by Hybrid Model Based on 3D Structure of Peptides” (International Journal of Molecular Sciences, 2021).

Read-outs that look alike come from different tables or passages of the source.

The data set concerns cancer cell lines. Set-up: method as in 6 sources, ref CancerPPD [45] and SATPdb ||| ref CancerPPD/SATPdb ||| ref CancerPPD, SATPdb, Swissprot (PDB) ||| ref CancerPPD/SATPdb/Swissprot(PDB) ||| ref CancerPPD / SATPdb ||| ... Conditions: cited from earlier work. From the text: Supplement ijms-22-05630-s001.zip/ACPs(seguence).xlsx, sheet "D1" | column: Activity || Supplement ijms-22-05630-s001.zip/ACPs(seguence).xlsx, sheet "D2" | column: Activity || Supplement ijms-22-05630-s001.zip/ACPs(seguence).xlsx, sheet "D3" | column: Activity || (+ 2 further places)

The mark [1] stands for this setting: ACPs dataset D3 (supplement sheet "D3"), 1 = ACP, 0 = non-ACP, ref CancerPPD [45] and SATPdb.
[2] abbreviates: ACPs dataset D4 (sheet "D4"), label 1 = ACP (CancerPPD ID), 0 = non-ACP (non-anticancer AMP, SATPdb ID), ref CancerPPD [45] and SATPdb.
Where [3] appears, read: ACPs dataset D5 (sheet "D5"), label 1 = ACP (positive set), 0 = non-ACP (negative set), ref CancerPPD [45] and SATPdb.
Where [4] appears, read: ACPs dataset D1, label 1 = ACP, 0 = non-ACP (non-anticancer AMPs from SATPdb), ref CancerPPD/SATPdb.
Where [5] appears, read: ACPs dataset D1, 1 = ACP (positive), 0 = non-ACP (negative), label taken from databases, ref CancerPPD [45] and SATPdb.
Setting [6] is: ACPs dataset D4 (sheet "D4"), label 1 = ACP, experimentally validated ACPs, ref CancerPPD [45] and SATPdb.
[7] abbreviates: ACPs dataset D5 (sheet "D5"), label 1 = ACP (positive set), sequences with CancerPPD/SATPdb ID, ref CancerPPD, SATPdb.
[8] abbreviates: ACPs dataset sheet D2, 1 = ACP (CancerPPD/SATPdb ID), 0 = non-ACP (Swissprot/PDB ID), ref CancerPPD, SATPdb, Swissprot (PDB).
Setting [9] is: ACPs dataset D3 (sheet "D3"), label 1 = ACP, 0 = non-ACP, ref CancerPPD/SATPdb.
Where [10] appears, read: ACPs dataset D4 (sheet "D4"), label 1 = ACP, 0 = non-ACP, ref CancerPPD / SATPdb.
[11] abbreviates: ACPs dataset D5, sheet "D5", label 1 = ACP, 0 = non-ACP, ref CancerPPD [45] and SATPdb.
Where [12] appears, read: ACPs dataset D2 (supplement ACPs(seguence).xlsx, sheet D2), dataset label 1/0 (ACP / non-ACP), entries identified by Swissprot(PDB ID), ref CancerPPD/SATPdb/Swissprot(PDB).

GLFDVIAKVASVIKKL [compound 4093]: the Activity reads like this: under setting [1], 1; under setting [2], 1; under setting [3], 1.
Turning to GIGKFLHSAKKFAKAFVAEIMNS [compound 1047], the Activity is, setting by setting: under setting [1], 1; under setting [2], 1; under setting [3], 1.
Turning to “WNPFKELERAGQRVRDAIISAAPAVATVGQAAAIARG [satpdb12131]”, the Activity is 0 under setting [4] and 0 under setting [2].
As for “KLCERSSGTWSGVCGNNNACKNQCINLEGARHGSCNYVFPYHRCICYFPC [satpdb11142]”, the Activity runs as follows: under setting [5], 0; under setting [2], 0.
Regarding YTMNPRKLFDY [satpdb15978], the Activity by setting is: under setting [5], 1; under setting [6], 1; under setting [7], 1; under setting [8], 1.
Turning to PIDERLRTCERLSYP [satpdb14897], the Activity is 1 under setting [5], 1 under setting [6], 1 under setting [7] and 1 under setting [8].
With “GLASFLGKALKAGLKIGSHLLGGAPQQ [satpdb10480]”, the Activity is reported as 0 under setting [5] and 0 under setting [2].
GIGKFLKKAKKFAKAFVKIINN [compound 1117]: the Activity is on record as 1 under setting [1], 1 under setting [2] and 1 under setting [3].
As to “KWKSFLKTFKSLKKTVLHTLLkAISS [compound 3767]”, the Activity is, setting by setting: under setting [1], 1; under setting [2], 1; under setting [3], 1.
Consider “FLPVIAGVAANFLPKLFCAISKKC [compound 4361]”, for which the Activity reads like this: under setting [5], 1; under setting [6], 1; under setting [7], 1; under setting [8], 1.
Consider “GILDSFKQFAKGVGKDLIKGAAQGVLSTMSCKLAKTC [satpdb11305]”, for which the Activity by setting is: under setting [5], 0; under setting [2], 0.
For the substance LLKWLKK [satpdb13213], the Activity reads like this: under setting [9], 0; under setting [10], 0; under setting [11], 0.
As to “KWKSFlKTFKSLKKTVLHTLLKAISS [compound 3768]”, the Activity is recorded as 1 under setting [1], 1 under setting [2] and 1 under setting [3].
On to DLWIRETLTSPKSLTG [satpdb21617], for which the Activity was 1 under setting [5], 1 under setting [6], 1 under setting [7] and 1 under setting [8].
Take GCVLYPWC [2M6C NMR - A 1-8]: the Activity is recorded as 0 under setting [3] and 0 under setting [8].
On to GLLDIVKKVVGAFGSL [compound 4414], for which the Activity was 1 under setting [5], 1 under setting [6], 1 under setting [7] and 1 under setting [8].
For “KFCEKPSGTWSGVCGNSGACKDQCIRLEGAKHGSCNYKLPAHRCICYYEC [satpdb13047]”, the Activity is recorded as 0 under setting [4] and 0 under setting [10].
Turning to GLFVGVLAKVAAHVVPAIAEHF [compound 4391], the Activity runs as follows: under setting [5], 1; under setting [6], 1; under setting [7], 1; under setting [8], 1.
“GIFSSRKCKTPSKTFKGYCTRDSNCDTSCRYEGYPAGD [satpdb10659]”: the Activity is listed as 0 under setting [5] and 0 under setting [2].
On to “HTHQDFQPVLHLVALNTPLSGGMRGIR [satpdb17795]”, for which the Activity under setting [5] is listed as 1, the Activity under setting [6] is 1, the Activity under setting [7] is reported as 1 and the Activity under setting [8] is 1.
Turning to FAKKLAKLAKKLLAL [compound 1790], the Activity runs as follows: under setting [1], 1; under setting [6], 1; under setting [7], 1.
On to GFKDLLKGAAKALVKTVLF [compound 4388], for which the Activity is given as 1 under setting [5], 1 under setting [6], 1 under setting [7] and 1 under setting [8].
Turning to “QLKKCWNNYVQGHCRKICRVNEVPEALCENGRYCCLNIKELEAC [satpdb10388]”, the Activity reads like this: under setting [5], 0; under setting [2], 0.
For the substance RGGRLCYCRRRFCVCVGR [compound 4251], the Activity under setting [1] is 1, the Activity under setting [2] was 1 and the Activity under setting [3] was 1.
For INGSLDKRVQDCYHG [satpdb28376], the Activity was 1 under setting [5], 1 under setting [6], 1 under setting [7] and 1 under setting [8].
Turning to HFLLTLVNLAKkIL [satpdb14808], the Activity is reported as 0 under setting [9], 0 under setting [10] and 0 under setting [11].
For “YITCLFRGARCRVYSGRSCCFGYYCRRDFPGSIFGTCSRRNF [2DCW NMR - A 1-42]”, the Activity is 0 under setting [12] and 0 under setting [3].
As for “GGLKKLGKKLEGAGKRVFNAAEKALPVVAGAKALG [satpdb11024]”, the Activity under setting [5] is 0 and the Activity under setting [2] is 0.
Turning to IFGAIWKGISSLL [satpdb10136], the Activity runs as follows: under setting [5], 0; under setting [2], 0.
On to “CSNLSTCVLGKLSQELHKLQTYPRTDVGAGTP [1BKU NMR - A 1-32]”, for which the Activity is reported as 0 under setting [3] and 0 under setting [8].
Regarding FLPVVAGLAAKVLPSIICAVTKKC [satpdb12902], the Activity is recorded as 0 under setting [4] and 0 under setting [10].
For “RDCTSQSHKFVGLCLSDRNCASVCLTEYFTGGKCDHRRCVCTKGC [satpdb13162]”, the Activity is on record as 0 under setting [4] and 0 under setting [10].
As for “CTTGPCCRQCKLKPAGTTCWKTSLTSHYCTGKSCDCPLYPG [1MPZ NMR - A 1-41]”, the Activity under setting [12] is reported as 0 and the Activity under setting [3] is 0.
On to “KKVCACPKILKPVCGSDGRTYANSCIARCNGVSIKSEGSCPTGILN [1LDT X-ray 1.90,L,1-46]”, for which the Activity is recorded as 0 under setting [12] and 0 under setting [3].
In the case of “GIACGESCVFLGCFIPGCSCKSKVCYFN [compound 4397]”, the Activity under setting [5] is reported as 1, the Activity under setting [6] is given as 1, the Activity under setting [7] is listed as 1 and the Activity under setting [8] is reported as 1.
As to “GTPCGESCVYIPCFTAVVGCTCKDKVCYLN [satpdb10441]”, the Activity under setting [4] is 0 and the Activity under setting [2] is 0.
As to KTCENLADTFRGPCFATSNC [compound 4449], the Activity is, setting by setting: under setting [5], 1; under setting [6], 1; under setting [7], 1; under setting [8], 1.
For NKWKKILGKIIKVVK [compound 3497], the Activity runs as follows: under setting [1], 1; under setting [2], 1; under setting [3], 1.
As to “SVLGTVKDLLIGAGKSAAQSVLTANSCKLSNSC [satpdb10581]”, the Activity reads like this: under setting [5], 0; under setting [2], 0.
“MVAYWRQAGLSYIRYSQICAKAVRDALKTEFKANAMKTSGSTIKIVKVKKE [2W6J X-ray 3.84,I,1-51]”: the Activity is on record as 0 under setting [12] and 0 under setting [11].
Turning to “GILDKLKEFGISAARGVAQSLLNTTASCKLAKTC [satpdb13132]”, the Activity is 0 under setting [4] and 0 under setting [10].
For “ANIKLSVQMKLFKRHLKWKIIVKLNDGRELSLDA [satpdb18078]”, the Activity is 1 under setting [5], 1 under setting [6], 1 under setting [7] and 1 under setting [8].
Regarding “GLMDTIKGVAKTVAASWLDKLKCKITGC [compound 4362]”, the Activity runs as follows: under setting [5], 1; under setting [6], 1; under setting [7], 1; under setting [8], 1.
As to “GFGCPFNQYECHAHCSGVPGYKGGYCKGLFKQTCNCY [satpdb12844]”, the Activity is, setting by setting: under setting [4], 0; under setting [10], 0.
With LSSTCILVLVKSTY [satpdb19063], the Activity under setting [5] is reported as 1, the Activity under setting [6] was 1, the Activity under setting [7] was 1 and the Activity under setting [8] is 1.
For ETFADWWKLLAE [compound 5061], the Activity under setting [5] was 1, the Activity under setting [6] was 1, the Activity under setting [7] is 1 and the Activity under setting [8] is 1.
“CENTISGCSR ADCLLTHRKQ GCQKTCGLC [5WCV NMR - A 1-29]”: the Activity under setting [3] is reported as 0 and the Activity under setting [8] is listed as 0.
